Experimental data reported in paper PMC5218480 (PLoS ONE, 2017).

Tested on: MV-4-11 cells
Assay: Gene expression microarray analysis (Affymetrix PrimeView) and GSEA
Assay type: cell-based, human
Design: RFU PODN (11730768_x_at) / Fold change /veh PODN (11730768_x_at) / RFU LINC00158 (11744669_a_at) / Fold change /veh LINC00158 (11744669_a_at) / RFU DUSP10 (11751237_a_at) / Fold change /veh DUSP10 (11751237_a_at) / RFU ID3 (11757404_x_at) / Fold change /veh ID3 (11757404_x_at) / RFU PLEKHG5 (11737974_s_at) / Fold change /veh PLEKHG5 (11737974_s_at) / RFU LRRC4B (11730491_at) / Fold change /veh LRRC4B (11730491_at) / RFU GIMAP4 (11747438_a_at) / Fold change /veh GIMAP4 (11747438_a_at) / RFU KRT8 (11758183_x_at) / Fold change /veh KRT8 (11758183_x_at) / RFU CNN1 (11734310_a_at) / Fold change /veh CNN1 (11734310_a_at) / RFU VPS37D (11726825_at) / Fold change /veh VPS37D (11726825_at) / RFU C10orf10 (11716522_x_at) / Fold change /veh C10orf10 (11716522_x_at) / RFU KIR2DL2 /// KIR2DL4 /// KIR2DL5A /// KIR2DL5B /// KIR2DS1 /// KIR2DS2 /// KIR2DS3 /// KIR2DS4 /// KIR3DL3 /// KIR3DL3 /// KIR3DS1 (11738374_at) / Fold change /veh KIR2DL2 /// KIR2DL4 /// KIR2DL5A /// KIR2DL5B /// KIR2DS1 /// KIR2DS2 /// KIR2DS3 /// KIR2DS4 /// KIR3DL3 /// KIR3DL3 /// KIR3DS1 (11738374_at) / RFU C1QL1 (11718748_at) / Fold change /veh C1QL1 (11718748_at) / RFU TMPRSS4 (11747572_a_at) / Fold change /veh TMPRSS4 (11747572_a_at) / RFU HAMP (11756126_x_at) / Fold change /veh HAMP (11756126_x_at) / RFU RNFT2 (11725882_a_at) / Fold change /veh RNFT2 (11725882_a_at) / RFU NR4A2 (11747474_a_at) / Fold change /veh NR4A2 (11747474_a_at) / RFU ABCC12 (11746883_a_at) / Fold change /veh ABCC12 (11746883_a_at) / RFU TMEM136 (11760407_x_at) / Fold change /veh TMEM136 (11760407_x_at) / RFU CLDN22 /// WWC2 (11732394_at) / Fold change /veh CLDN22 /// WWC2 (11732394_at) / RFU HLA-DPB1 (11760878_x_at) / Fold change /veh HLA-DPB1 (11760878_x_at) / RFU SPINT1 (11716480_a_at) / Fold change /veh SPINT1 (11716480_a_at) / RFU GAP43 (11754022_s_at) / Fold change /veh GAP43 (11754022_s_at) / RFU A4GNT (11735810_at) / Fold change /veh A4GNT (11735810_at) / RFU PRB3 (11715151_x_at) / Fold change /veh PRB3 (11715151_x_at) / RFU TUBB4B (11761932_at) / Fold change /veh TUBB4B (11761932_at) / RFU CAPN14 (11732068_a_at) / Fold change /veh CAPN14 (11732068_a_at) / RFU TMCC2 (11721928_a_at) / Fold change /veh TMCC2 (11721928_a_at) / RFU IRGQ (11745062_a_at) / Fold change /veh IRGQ (11745062_a_at) / RFU FAM174B (11720279_a_at) / Fold change /veh FAM174B (11720279_a_at) / RFU TMPRSS4 (11748680_a_at) / Fold change /veh TMPRSS4 (11748680_a_at) / RFU FAM212B (11763350_a_at) / Fold change /veh FAM212B (11763350_a_at) / RFU PLEKHG5 (11743358_a_at) / Fold change /veh PLEKHG5 (11743358_a_at) / RFU ZSCAN30 (11745921_a_at) / Fold change /veh ZSCAN30 (11745921_a_at) / RFU CMKLR1 (11741424_a_at) / Fold change /veh CMKLR1 (11741424_a_at) / RFU LOC101060620 /// MAPK8IP1 (11723275_at) / Fold change /veh LOC101060620 /// MAPK8IP1 (11723275_at) / RFU SPTSSB (11747773_x_at) / Fold change /veh SPTSSB (11747773_x_at) / RFU PRSS12 (11739890_at) / Fold change /veh PRSS12 (11739890_at) / RFU BIN1 (11741810_x_at) / Fold change /veh BIN1 (11741810_x_at) / RFU WNT11 (11732464_a_at) / Fold change /veh WNT11 (11732464_a_at) / RFU C10orf10 (11716521_a_at) / Fold change /veh C10orf10 (11716521_a_at) / RFU C5orf56 (11738089_at) / Fold change /veh C5orf56 (11738089_at) / RFU CYB561 (11721691_x_at) / Fold change /veh CYB561 (11721691_x_at) / RFU ANKRD19P (11752326_a_at) / Fold change /veh ANKRD19P (11752326_a_at) / RFU OR2T12 /// OR2T33 /// OR2T8 (11738714_s_at) / Fold change /veh OR2T12 /// OR2T33 /// OR2T8 (11738714_s_at) / RFU VCAN (11748164_a_at) / Fold change /veh VCAN (11748164_a_at) / RFU JSRP1 (11732532_at) / Fold change /veh JSRP1 (11732532_at) / RFU KRTAP10-11 (11738290_x_at) / Fold change /veh KRTAP10-11 (11738290_x_at) / RFU MYO3A (11730013_a_at) / Fold change /veh MYO3A (11730013_a_at) / RFU EBF3 (11725865_a_at) / Fold change /veh EBF3 (11725865_a_at) / RFU CAMK2N1 (11719241_x_at) / Fold change /veh CAMK2N1 (11719241_x_at) / RFU C5orf56 (11738088_a_at) / Fold change /veh C5orf56 (11738088_a_at) / RFU OLFML3 (11715873_a_at) / Fold change /veh OLFML3 (11715873_a_at) / RFU LOC100653217 /// NTM (11731650_a_at) / Fold change /veh LOC100653217 /// NTM (11731650_a_at) / RFU MAPK11 (11762145_a_at) / Fold change /veh MAPK11 (11762145_a_at) / RFU FIZ1 (11724087_x_at) / Fold change /veh FIZ1 (11724087_x_at) / RFU OASL (11726364_x_at) / Fold change /veh OASL (11726364_x_at) / RFU SOX15 (11748057_x_at) / Fold change /veh SOX15 (11748057_x_at) / RFU CD79A (11719716_a_at) / Fold change /veh CD79A (11719716_a_at) / RFU HIST1H1D (11736915_at) / Fold change /veh HIST1H1D (11736915_at) / RFU CASKIN2 (11723855_a_at) / Fold change /veh CASKIN2 (11723855_a_at) / RFU LOC730098 (11760151_x_at) / Fold change /veh LOC730098 (11760151_x_at) / RFU OR4N2 (11742367_at) / Fold change /veh OR4N2 (11742367_at) / RFU PRRT2 (11749266_a_at) / Fold change /veh PRRT2 (11749266_a_at) / RFU SNX32 (11753110_a_at) / Fold change /veh SNX32 (11753110_a_at) / RFU CDHR5 (11726645_a_at) / Fold change /veh CDHR5 (11726645_a_at) / RFU RCAN1 (11760418_a_at) / Fold change /veh RCAN1 (11760418_a_at) / RFU FAM167A (11723789_a_at) / Fold change /veh FAM167A (11723789_a_at) / RFU FAM26E (11764081_at) / Fold change /veh FAM26E (11764081_at) / RFU ISYNA1 (11749810_s_at) / Fold change /veh ISYNA1 (11749810_s_at) / RFU ACY1 (11761880_at) / Fold change /veh ACY1 (11761880_at) / RFU 11764098_at / Fold change /veh 11764098_at / RFU SAMD14 (11745864_x_at) / Fold change /veh SAMD14 (11745864_x_at) / RFU NPB (11741838_a_at) / Fold change /veh NPB (11741838_a_at) / RFU TMPRSS6 (11731388_a_at) / Fold change /veh TMPRSS6 (11731388_a_at) / RFU KRTAP10-2 (11738614_at) / Fold change /veh KRTAP10-2 (11738614_at) / RFU ARHGAP8 /// PRR5-ARHGAP8 (11727945_x_at) / Fold change /veh ARHGAP8 /// PRR5-ARHGAP8 (11727945_x_at) / RFU KRTAP5-7 /// NADSYN1 (11734609_at) / Fold change /veh KRTAP5-7 /// NADSYN1 (11734609_at) / RFU RASL12 (11751679_a_at) / Fold change /veh RASL12 (11751679_a_at) / RFU CDKN2B (11736163_a_at) / Fold change /veh CDKN2B (11736163_a_at) / RFU PRF1 (11729649_at) / Fold change /veh PRF1 (11729649_at) / RFU, ZNF638 /// ZNF638-IT1 / Fold change vs veh, ZNF638 /// ZNF638-IT1 / RFU, PANK3 / Fold change vs veh, PANK3 / RFU, SH3YL1 / Fold change vs veh, SH3YL1 / RFU, ZEB2 / Fold change vs veh, ZEB2 / RFU, NRIP1 / Fold change vs veh, NRIP1 / RFU, PTTG1IP / Fold change vs veh, PTTG1IP / RFU, CAPN2 / Fold change vs veh, CAPN2 / RFU, MED14 / Fold change vs veh, MED14 / RFU, SNORA58 / Fold change vs veh, SNORA58 / RFU, C1orf63 / Fold change vs veh, C1orf63 / RFU, LRRFIP1 / Fold change vs veh, LRRFIP1 / RFU, NDUFAF7 / Fold change vs veh, NDUFAF7 / RFU, SLC12A2 / Fold change vs veh, SLC12A2 / RFU, IBTK / Fold change vs veh, IBTK / RFU, ESF1 / Fold change vs veh, ESF1 / Fold change vs veh, TMEM50B / RFU, TAOK1 / Fold change vs veh, TAOK1 / RFU, ACBD3 / Fold change vs veh, ACBD3 / RFU, TMA16 / Fold change vs veh, TMA16 / RFU, RWDD3 / Fold change vs veh, RWDD3 / RFU, BCAT1 / Fold change vs veh, BCAT1 / RFU, EDEM3 / Fold change vs veh, EDEM3 / RFU, TMEM33 / Fold change vs veh, TMEM33 / RFU, WDR75 / Fold change vs veh, WDR75 / RFU, AHCTF1 / Fold change vs veh, AHCTF1 / RFU, TFRC / Fold change vs veh, TFRC / RFU, ZDHHC17 / Fold change vs veh, ZDHHC17 / RFU, NOM1 / Fold change vs veh, NOM1 / RFU, ARL8B / Fold change vs veh, ARL8B / RFU, ZBTB11 / Fold change vs veh, ZBTB11 / RFU, TAMM41 / Fold change vs veh, TAMM41 / RFU, KIAA1704 /// LOC100996395 / Fold change vs veh, KIAA1704 /// LOC100996395 / RFU, ING1 / Fold change vs veh, ING1 / RFU, TRMT61B / Fold change vs veh, TRMT61B / RFU, FUBP3 / Fold change vs veh, FUBP3 / RFU, TP53 / Fold change vs veh, TP53 / RFU, TNKS2 / Fold change vs veh, TNKS2 / RFU, ZFP14 / Fold change vs veh, ZFP14 / RFU, ACTR2 / Fold change vs veh, ACTR2 / RFU, PPP3R1 / Fold change vs veh, PPP3R1 / RFU, PIK3R1 / Fold change vs veh, PIK3R1 / RFU, HNRNPA1 / Fold change vs veh, HNRNPA1 / RFU, RNF170 / Fold change vs veh, RNF170 / RFU, ZNF28 / Fold change vs veh, ZNF28 / RFU, RNGTT / Fold change vs veh, RNGTT / RFU, OGT / Fold change vs veh, OGT / RFU, BRD1 / Fold change vs veh, BRD1 / RFU, MARS / Fold change vs veh, MARS / RFU, ZNF655 / Fold change vs veh, ZNF655 / RFU, FAHD1 / Fold change vs veh, FAHD1 / RFU, BDP1 / Fold change vs veh, BDP1 / RFU, LRRCC1 / Fold change vs veh, LRRCC1 / RFU, ARID1A / Fold change vs veh, ARID1A / RFU, ZNF146 / Fold change vs veh, ZNF146 / RFU, ZNF330 / Fold change vs veh, ZNF330 / RFU, GPN3 / Fold change vs veh, GPN3 / RFU, C9orf123 / Fold change vs veh, C9orf123 / RFU, N4BP2L2 / Fold change vs veh, N4BP2L2 / RFU, ARFIP1 / Fold change vs veh, ARFIP1 / RFU, FAM179B / Fold change vs veh, FAM179B / RFU, BCL10 / Fold change vs veh, BCL10 / RFU, UHRF1BP1L / Fold change vs veh, UHRF1BP1L / RFU, BET1 / Fold change vs veh, BET1 / RFU, CNOT2 / Fold change vs veh, CNOT2 / RFU, ZNF268 / Fold change vs veh, ZNF268 / Fold change vs veh, ZNF507 / RFU, DGCR2 / Fold change vs veh, DGCR2 / RFU, WDSUB1 / Fold change vs veh, WDSUB1 / Fold change vs veh, HSP90B1 /// MIR3652 / RFU, ADSS / Fold change vs veh, ADSS / RFU, GK / Fold change vs veh, GK / RFU, ZNF148 / Fold change vs veh, ZNF148 / RFU, TAF9 / Fold change vs veh, TAF9 / RFU, SLC1A5 / Fold change vs veh, SLC1A5 / RFU, SLMO2 / Fold change vs veh, SLMO2 / RFU, ABCC4 / Fold change vs veh, ABCC4 / RFU, LOC101060439 /// RAP1B / Fold change vs veh, LOC101060439 /// RAP1B / RFU, RFX7 / Fold change vs veh, RFX7 / RFU, GTPBP10 / Fold change vs veh, GTPBP10 / RFU, CNEP1R1 / Fold change vs veh, CNEP1R1 / RFU, BIVM-ERCC5 /// ERCC5 / Fold change vs veh, BIVM-ERCC5 /// ERCC5 / RFU, ILF3 / Fold change vs veh, ILF3 / RFU 11762660_at / Fold change /veh 11762660_at / RFU VCAN (11757783_s_at) / Fold change /veh VCAN (11757783_s_at) / RFU DDX43 (11728927_at) / Fold change /veh DDX43 (11728927_at) / RFU KRT8 (11758188_x_at) / Fold change /veh KRT8 (11758188_x_at) / RFU NKD1 (11759106_at) / Fold change /veh NKD1 (11759106_at) / RFU SRD5A1 (11742802_a_at) / Fold change /veh SRD5A1 (11742802_a_at) / RFU TPSAB1 /// TPSB2 (11721975_s_at) / Fold change /veh TPSAB1 /// TPSB2 (11721975_s_at) / RFU GSTM3 (11746129_a_at) / Fold change /veh GSTM3 (11746129_a_at) / RFU IL23R (11737362_x_at) / Fold change /veh IL23R (11737362_x_at) / RFU TMEM51 (11727254_a_at) / Fold change /veh TMEM51 (11727254_a_at) / RFU PIWIL2 (11732686_x_at) / Fold change /veh PIWIL2 (11732686_x_at) / RFU ORM1 (11744905_x_at) / Fold change /veh ORM1 (11744905_x_at) / RFU CCDC152 (11743942_at) / Fold change /veh CCDC152 (11743942_at) / RFU ECM1 (11717891_a_at) / Fold change /veh ECM1 (11717891_a_at) / RFU IL23R (11748794_a_at) / Fold change /veh IL23R (11748794_a_at) / RFU TNFAIP8L3 (11732012_x_at) / Fold change /veh TNFAIP8L3 (11732012_x_at) / RFU MBOAT4 (11741988_at) / Fold change /veh MBOAT4 (11741988_at) / RFU 11764193_at / Fold change /veh 11764193_at / RFU TMEM53 (11763286_at) / Fold change /veh TMEM53 (11763286_at) / RFU MAGEB2 (11727129_at) / Fold change /veh MAGEB2 (11727129_at) / RFU TMEM200A (11744735_a_at) / Fold change /veh TMEM200A (11744735_a_at) / RFU CCDC152 (11751479_a_at) / Fold change /veh CCDC152 (11751479_a_at) / RFU FAM211A (11726209_a_at) / Fold change /veh FAM211A (11726209_a_at) / RFU RGS16 (11746705_a_at) / Fold change /veh RGS16 (11746705_a_at) / RFU VCAN (11755009_s_at) / Fold change /veh VCAN (11755009_s_at) / RFU RHOB (11743442_s_at) / Fold change /veh RHOB (11743442_s_at) / RFU RGS16 (11720943_a_at) / Fold change /veh RGS16 (11720943_a_at) / RFU RGS16 (11720944_at) / Fold change /veh RGS16 (11720944_at) / RFU, VPS4B / Fold change vs veh, VPS4B / RFU, CREB1 / Fold change vs veh, CREB1 / RFU, DNAJC13 / Fold change vs veh, DNAJC13 / RFU, GNAQ / Fold change vs veh, GNAQ / RFU, CDK5R1 / Fold change vs veh, CDK5R1 / RFU, ZRANB3 / Fold change vs veh, ZRANB3 / RFU, CUL4A / Fold change vs veh, CUL4A / RFU, CCNY / Fold change vs veh, CCNY / RFU, UFL1 / Fold change vs veh, UFL1 / RFU, COG3 / Fold change vs veh, COG3 / RFU, DIAPH2 / Fold change vs veh, DIAPH2 / RFU, SKA2 / Fold change vs veh, SKA2 / RFU, AFF3 / Fold change vs veh, AFF3 / RFU, LMF1 / Fold change vs veh, LMF1 / RFU, IPO11 / Fold change vs veh, IPO11 / RFU, DFFB / Fold change vs veh, DFFB / RFU, FOXP1 / Fold change vs veh, FOXP1 / RFU, CARD8 / Fold change vs veh, CARD8 / RFU, STRN3 / Fold change vs veh, STRN3 / RFU, ADK / Fold change vs veh, ADK / RFU, RASSF2 / Fold change vs veh, RASSF2 / RFU, WIPF1 / Fold change vs veh, WIPF1 / RFU, LARP1B / Fold change vs veh, LARP1B / RFU, RASA1 / Fold change vs veh, RASA1 / RFU, RB1 / Fold change vs veh, RB1 / RFU, PPFIA1 / Fold change vs veh, PPFIA1 / RFU, MAT2A / Fold change vs veh, MAT2A / RFU, CCT5 / Fold change vs veh, CCT5 / RFU, WDR92 / Fold change vs veh, WDR92 / RFU, CUX1 / Fold change vs veh, CUX1 / RFU, TTC7A / Fold change vs veh, TTC7A / RFU, TMEM135 / Fold change vs veh, TMEM135 / RFU, DEPTOR / Fold change vs veh, DEPTOR / RFU, CPM / Fold change vs veh, CPM / RFU, DNAJB6 / Fold change vs veh, DNAJB6 / RFU, CACNA2D3 / Fold change vs veh, CACNA2D3 / RFU, DTX4 / Fold change vs veh, DTX4 / RFU, TFCP2 / Fold change vs veh, TFCP2 / RFU, GMCL1 /// GMCL1P1 / Fold change vs veh, GMCL1 /// GMCL1P1 / RFU, AEBP2 / Fold change vs veh, AEBP2 / RFU, SNHG1 /// SNORD22 /// SNORD25 /// SNORD26 /// SNORD27 /// SNORD28 /// SNORD29 /// SNORD31 / Fold change vs veh, SNHG1 /// SNORD22 /// SNORD25 /// SNORD26 /// SNORD27 /// SNORD28 /// SNORD29 /// SNORD31 / Fold change (Aza/veh), C12orf56 (ProbeSet 11735607_a_at) / Fold change (ACY-1035/veh), C12orf56 (ProbeSet 11735607_a_at) / Fold change (Aza/veh), FGFR1OP (ProbeSet 11751329_s_at) / Fold change (ACY-1035/veh), FGFR1OP (ProbeSet 11751329_s_at) / Fold change (Aza/veh), VPS36 (ProbeSet 11739960_a_at) / Fold change (ACY-1035/veh), VPS36 (ProbeSet 11739960_a_at) / RFU SYPL1 (11715823_x_at) / Fold change /veh SYPL1 (11715823_x_at) / RFU IGFBP7 (11715501_s_at) / Fold change /veh IGFBP7 (11715501_s_at) / RFU REEP3 (11722064_at) / Fold change /veh REEP3 (11722064_at) / RFU IGLL1 (11728026_x_at) / Fold change /veh IGLL1 (11728026_x_at): dose or concentration left out as unconfirmed
Details: ProbeSet 11726703_a_at; LIST B

Compound: Nc1ncn([C@@H]2O[C@H](CO)[C@@H](O)[C@H]2O)c(=O)n1 [azacitidine]
- Fold change vs veh, BCL10: 0.88
